Laboratory results: paper PMC10874388, “Cyclic peptides discriminate BCL-2 and its clinical mutants from BCL-XL by engaging a single-residue discrepancy” (Nature Communications, 2024)
“And” between values parts separate entries of the source, which are not always exact repeats. Equal entries are not always repeated. Starred links: 1 amine or outer side, 2 acyl side, 3 side chain; linkers in the order of their positions; H or OH if unused. Positions of bridges follow the written chain, without caps; N, C: chain ends. Residues, ends and D or L forms follow the SMILES beside them. No end group written: not given here. X1 = O=C(C[*:2])NCCNC(=O)c1ccc(C2=N[C@H](C(=O)[*:1])CS2)cc1; cADT = 2-aryl-4,5-dihydrothiazole (ADT) linker

T1: chimeric human BCL-2 (residues 1-50 and 92-207, residues 35-50 replaced with residues 33-48 of BCL-XL) (human, UniProt P10415 1-34; Q07817-1 33-48; P10415 92-207, biotin (biotinylated for SPR; site not stated))
T1 construct: BCL-2, human, residues 1-34 of the chimera (internal loop 51-91 removed; residues 35-50 replaced with residues 33-48 of BCL-XL); BCL-XL, human, residues 33-48, in place of BCL-2 residues 35-50; BCL-2, human, residues 92-207; Biotinylated for SPR; used as such for crystals and fluorescence polarisation; also called BCL-2 WT; source: E. coli BL21 (DE3), purified (Ni-NTA, Superdex 75, RESOURCE Q, …)
T1 chain (looked up): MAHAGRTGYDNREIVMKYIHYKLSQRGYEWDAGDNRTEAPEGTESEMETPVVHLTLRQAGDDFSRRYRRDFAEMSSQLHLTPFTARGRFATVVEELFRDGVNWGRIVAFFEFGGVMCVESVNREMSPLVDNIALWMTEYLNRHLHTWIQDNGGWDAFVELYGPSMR

B1: cp4 (peptide)
peptide: CPIRYGWDEFC
modifications: linker 1-11 via cADT (inferred)
notes: cp4 is cp2 with E6 substituted by G6; source: synthetic peptide
B2: cp5 (peptide)
peptide: CPIRYPWDEFC
modifications: linker 1-11 via cADT (inferred)
notes: cp5 is cp2 with E6 substituted by P6; source: synthetic peptide

What was measured:
[1] = tested on: RS4:11 cells; assay: Cell viability assay (CellTiter-Glo), RS4:11; assay type: cell-based; details: RS4:11, single wells
Experimental: (§1) The cell lines Jurkat (TIB-152), El4 (TIB-39), Daudi (ccl-213), RS4:11 (crl-1873), A549 (ccl-185), HepG2 (hb-8065) and PANC-1 (crl-1469) were purchased from ATCC (American Type Culture Collection), and MGC-803 (C6582) was purchased from Beyotime (https://www.beyotime.com/product/C6582.htm). […] Daudi and RS4:11 cells were cultured in RPMI-1640 medium (HyClone, SH30809.01) and 10% FBS (Gibco, 10099-141), whereas HepG2, MGC-803 and PANC-1 cells were cultured in MDEM (HyClone, SH30243.01). Cells were maintained at 37 °C under a humidified, 5% (v/v) CO2-containing atmosphere.
(§2) Cell viability was measured using CellTiter-Glo® 2.0 Reagent (Promega, G9242). […] After different inhibitors were added into serum-free medium and cultured for 4 h (RS4:11 for 6 h), FBS were supplemented to 10% and then incubated totally for 24 h or 48 h. Finally, the IC50 values were calculated based on measurements using a microplate reader (Thermo, Varioskan LUX). Statistical analysis was performed using software GraphPad Prism 7.0.

[2] = tested on: Jurkat cells; assay: Apoptosis assay, Annexin V-FITC/PI staining and flow cytometry; assay type: cell-based; details: for cell apoptosis(%): Figure 6b, replicate values; for Proportion of apoptotic cells: Jurkat, 24 h
Experimental: Jurkat cells were seeded to 6-well plates at a density of 4 ×10^5 cells per well. Cells were incubated in the presence of DMSO, venetoclax at 2.5 μM, cp1-TAT at 30 μM, cp2-TAT at 30 μM, or cp3-TAT at 20 μM in serum-free RPMI medium for 4 h. After being incubated totally for 24 h, cells were washed once with PBS and stained with 100 μL binding buffer containing 5 μL Annexin V-FITC and 10 μL PI for 15 min, followed by addition of 400 μL binding buffer to detect cell apoptosis with FCM (BD FACSAria Fusion). Statistical analysis was performed using software FlowJo V10 and GraphPad Prism 7.0.

[3] = tested on: Jurkat cells; assay: Mitochondrial membrane potential (JC-1), flow cytometry and fluorescence microscopy; assay type: cell-based; details: for Q1(%) / Q1(%)/Q3(%) / Q3(%): Figure 6d, 4h, replicate values; for ΔΨm (ratio of red over green fluorescence, Q1/Q3) / Relative ΔΨm by JC-1 fluorescence staining (microscopy): Jurkat; for ΔΨm (ratio of red over green fluorescence, Q1/Q3): 4 h treatment, JC-1, flow cytometry, n = 3; for Relative ΔΨm by JC-1 fluorescence staining (microscopy): 24 h treatment (Supplementary Fig. 13)
Experimental: For the mitochondrial membrane potential (ΔΨm) analysis, the mitochondrial membrane potential assay kit with JC-1 dye (Beyotime, C2006) was used according to the manufacturer’s protocol. […] The value of ΔΨm was expressed as the ratio of red fluorescence intensity over green fluorescence intensity. After treated with JC-1, fluorescence intensity of Jurkat cells was tested by flow cytometry (BD FACSAria Fusion) and fluorescence microscopy (NIKON Ti-E), respectively. All experiments were performed in triplicate. Statistical analysis was performed using software GraphPad Prism 7.0.

[4] = tested on: Daudi cells; assay: Cell viability assay (CellTiter-Glo), Daudi; assay type: cell-based; details: 48 h treatment, CellTiter-Glo
Experimental: as §1, §2

[5] = target: T1, chimeric human BCL-2 (residues 1-50 and …); assay: SPR; Biacore T200; biotinylated proteins immobilised on a CAP sensor chip; peptides flowed in multiple cycles (25-12800 nM, depending on the peptides) at 30 uL/min; 10 mM PBS, 50 uM EDTA, 0.05% Tween-20, 25 °C; affinity fitting, 1:1 binding model; details: both partners purified
[6] = target: T2, human BCL-XL (residues 1-210, with 27-81 and 210-233 removed) (human, UniProt Q07817-1 1-209, 27-81 removed, biotin (biotinylated for SPR; site not stated)); assay: as above; details: both partners purified
T2 construct: BCL-XL, human; printed as residues 1-210, with 27-81 and 210-233 removed (so the last residue is 209 or 210); source: E. coli BL21 (DE3), purified (Ni-NTA, Superdex 75, RESOURCE Q, Superdex 200)
T2 sequence (Q07817 other isoform, or with tags, fused parts or gaps 27-81 removed | 27-81 removed): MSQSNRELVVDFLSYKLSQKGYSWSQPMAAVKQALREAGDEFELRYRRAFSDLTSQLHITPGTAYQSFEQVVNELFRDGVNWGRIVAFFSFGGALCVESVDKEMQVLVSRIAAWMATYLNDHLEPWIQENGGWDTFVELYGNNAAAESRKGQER

Row | Kd [5] [µM] | Kd [6] [µM] | Molecule | raw luminescence reading ([1]; 0.0488281 uM) | raw luminescence reading ([1]; 0.0976562 uM) | raw luminescence reading ([1]; 0.195312 uM) | raw luminescence reading ([1]; 0.390625 uM) | raw luminescence reading ([1]; 0.78125 uM) | raw luminescence reading ([1]; 1.5625 uM) | raw luminescence reading ([1]; 3.125 uM) | raw luminescence reading ([1]; 6.25 uM) | raw luminescence reading ([1]; 12.5 uM) | raw luminescence reading ([1]; 25 uM) | cell apoptosis(%) [2] | Q1(%) [3] | Q1(%)/Q3(%) [3] | Q3(%) [3] | ΔΨm (ratio of red over green fluorescence, Q1/Q3) [3] | Relative ΔΨm by JC-1 fluorescence staining (microscopy) [3] | other results
1 | – | – | CC[C@H](C)[C@@H]1NC(=O)[C@@H]2CCCN2C(=O)[C@@H]2CSC(=N2)c2ccc(cc2)C(=O)NCCNC(=O)CSC[C@@H](C(=O)NCC(=O)N[C@@H](CO)C(=O)NCC(=O)N[C@@H](CO)C(=O)N[C@@H](CCCNC(=N)N)C(=O)N[C@@H](CCCCN)C(=O)N[C@@H](CCCCN)C(=O)N[C@@H](CCCNC(=N)N)C(=O)N[C@@H](CCCNC(=N)N)C(=O)N[C@@H](CCC(N)=O)C(=O)N[C@@H](CCCNC(=N)N)C(=O)N[C@@H](CCCNC(=N)N)C(=O)N[C@@H](CCCNC(=N)N)C(N)=O)NC(=O)[C@H](Cc2ccccc2)NC(=O)[C@H](CCC(=O)O)NC(=O)[C@H](CC(=O)O)NC(=O)[C@H](Cc2c[nH]c3ccccc23)NC(=O)[C@H](CCC(=O)O)NC(=O)[C@H](Cc2ccc(O)cc2)NC(=O)[C@H](CCCNC(=N)N)NC1=O [cp2-TAT] (PIRYEWDEFCGSGSRKKRRQRRR-NH2; linker N-10 via X1; C-terminus assumed) | 377400 and 399400 and 472900 and 398600 and 396500 and 376600 | 367900 and 411600 and 442500 and 406100 and 405700 and 384000 | 397400 and 403000 and 448800 and 404500 and 392400 and 382800 | 444700 and 450800 and 451700 and 438000 and 424700 and 412100 | 472600 and 478400 and 471500 and 453400 and 442900 and 434600 | 448100 and 455300 and 501800 and 445000 and 424900 and 404900 | 365800 and 401400 and 456400 and 498100 and 396600 and 403200 | 354100 and 405500 and 450900 and 485900 and 401500 and 412400 | 349800 and 390500 and 462000 and 475300 and 407800 and 417800 | 354900 and 371900 and 417300 and 420500 and 396000 and 400300 | 18.83% and 24.52% | 90.3% and 89.6% and 90% | 12.1534 and 10.7049 and 11.4358 | 7.43% and 8.37% and 7.87% | 11.43 | slightly decreased | inhibition rate ([1]; 0.0488281 uM, 0.0488281 µM): 9%; inhibition rate ([1]; 0.390625 uM, 0.390625 µM): -7.55% and -9% and -6% and -2.71% and 0.339%; inhibition rate ([1]; 0.78125 uM, 0.78125 µM): -14%; raw luminescence reading ([1]; 50 uM): 273500 and 288400 and 308900 and 317300 and 306600 and 319600; inhibition rate ([1]; 50 uM, 50 µM): 34% and 30% and 25% and 23% and 26%; raw luminescence reading ([1]; 100 uM): 86770 and 92180 and 107300 and 109400 and 97150 and 101700; inhibition rate ([1]; 100 uM, 100 µM): 79% and 78% and 74% and 77% and 75%; Proportion of apoptotic cells ([2]; 30 μM): 18.83%
2 | – | – | CC[C@H](C)[C@@H]1NC(=O)[C@@H]2CCCN2C(=O)[C@@H]2CSC(=N2)c2ccc(cc2)C(=O)NCCNC(=O)CSC[C@@H](C(=O)NCC(=O)N[C@@H](CO)C(=O)NCC(=O)N[C@@H](CO)C(=O)N[C@@H](CCCNC(=N)N)C(=O)N[C@@H](CCCCN)C(=O)N[C@@H](CCCCN)C(=O)N[C@@H](CCCNC(=N)N)C(=O)N[C@@H](CCCNC(=N)N)C(=O)N[C@@H](CCC(N)=O)C(=O)N[C@@H](CCCNC(=N)N)C(=O)N[C@@H](CCCNC(=N)N)C(=O)N[C@@H](CCCNC(=N)N)C(N)=O)NC(=O)[C@H](CCC(=O)O)NC(=O)[C@H](C(C)C)NC(=O)[C@H](CC(=O)O)NC(=O)[C@H](Cc2c[nH]c3ccccc23)NC(=O)[C@@H]2CCCN2C(=O)[C@H](Cc2ccc(O)cc2)NC(=O)[C@H](CCCNC(=N)N)NC1=O [cp3-TAT] (PIRYPWDVECGSGSRKKRRQRRR-NH2; linker N-10 via X1; C-terminus assumed) | 433900 and 423300 and 457600 and 413600 and 399000 and 376500 | 420200 and 404600 and 437700 and 401400 and 384500 and 361600 | 419000 and 421800 and 444400 and 422500 and 407600 and 396300 | 424000 and 396600 and 443200 and 395300 and 386700 and 379800 | 411200 and 409100 and 439500 and 400400 and 395700 and 387400 | 353400 and 425900 and 446500 and 460500 and 369200 and 455200 | 352000 and 428300 and 434800 and 455400 and 358000 and 465500 | 339600 and 384800 and 395500 and 428900 and 341900 and 416000 | 266500 and 298700 and 305700 and 333300 and 270500 and 326800 | 85450 and 98110 and 94850 and 106300 and 88910 and 106600 | 99.03% and 93.5% | 56.7% and 57.7% and 59.6% | 1.435 and 1.514 and 1.628 | 39.5% and 38.1% and 36.6% | 1.53 | red fluorescence almost disappeared | IC50 [4]: 7.94 µM; inhibition rate ([1]; 12.5 uM, 12.5 µM): 37% and 29% and 28% and 21% and 36% and 23%; inhibition rate ([1]; 25 uM, 25 µM): 80% and 77% and 78% and 75% and 79%; inhibition rate ([1]; 50 uM): 100%; inhibition rate ([1]; 100 uM): 100%; Proportion of apoptotic cells ([2]; 20 μM): 99.03%
3 | 0.08 | 0.47 | B1 | – | – | – | – | – | – | – | – | – | – | – | – | – | – | – | – | –
4 | 0.08 | 0.04 | B2 | – | – | – | – | – | – | – | – | – | – | – | – | – | – | – | – | –
